From patent publication US20040185073A1, “Cosmetic compositions containing salts of malonic acid” (Unilever Home & Personal Care USA, Division of Conopco, Inc., priority 2003, published 2004)

Tested on: Porcine Skin
Experiment: Porcine Skin Test (thermo-mechanical analyzer deflection, 20 gram load)
Protocol: A feature of the present invention is that malonate salts are those which impart to the composition a positive Flexibility Value of at least 1, preferably at least 1.1 relative to water in the Porcine Skin Test. This test utilizes a thermo-mechanical analyzer with a 20 gram load to a one-cm diameter disc of Porcine Skin from which the immediate deflection is recorded in mm. Water serves as a control. Skin samples are measured before and 24 hours after one, two and three treatments. These treatments consist of 150 μl of each composition being applied to the skin for five minutes, then removed without rinsing. Thereafter, drying is performed at 21° C. and less than 100% relative humidity. Data transformation consists of determining the ratio of the deflection value after three applications of the test composition to the deflection value of the water standard. The ratio is defined as the Flexibility Value.
A variety of carboxylic acid salts were evaluated to determine their response in a Porcine Skin Test. A Perkin-Elmer Thermo-Mechanical Analyzer, Model TMS-1, was operated with a 20 gram load placed to a center of a one-cm diameter disc of Porcine Skin. Deflection of the skin in mm was immediately recorded. The sample size was six pieces of skin per treatment. Water was used as a control. […] Each was measured dry before and 24 hours after one, two and three treatments. […]

Substance: Dimethylethanolammonium Malonate [Malonate Salt]
- Flexibility Value (test material solution, 150 μl applied 5 minutes, ratio of deflection after three applications to deflection of water standard (water = 1.00)): 1.36
- effect on skin flexibility (in words) (test material solutions, versus water): significantly more flexible
